Patent EP0520604A2, “Monoclonal antibody against pentacyclic oleanan-type triterpene and use thereof” (MINOPHAGEN PHARMACEUTICAL COMPANY, priority 1991, dated 1992)

Key:
Experiment in all cases: Inhibition ELISA (cross reactivity), solidified GA-BSA conjugate as antigen
Format in all cases: binding, mouse
[1] = test system: monoclonal antibody produced by a strain GA2-20-1; conditions: for 50 % inhibition concentration (IC 50): monoclonal antibody 2-20-1, 50-fold diluted, from inhibition curves; for cross reactivity: monoclonal antibody 2-20-1, values in parenthesis, relative to (GA)
Method: (§1) Inhibition ELISA comprises sequentially incubating the solidified GA-BSA conjugate with glycyrrhetic acid or a sample together with the antibody, bonding the enzyme-labeled anti-mouse IgG to the resulting incubation mixture, thereby measuring the enzyme activity. The antibody bonded to the antigen contained in the sample cannot be bonded to the solidified antigen, and therefore, the amount of the enzyme bonded is reduced. By measuring the enzyme activity, glycyrrhetic acid contained in the sample can be measured. The amount of glycyrrhizin can be determined by measuring glycyrrhetic acid generated by the acid hydrolysis of glycyrrhizin.
(§2) According to direct ELISA, the antibody solution is divided into each well; according to inhibition ELISA, glycyrrhetic acid or a sample solution is divided into each well together with the antibody solution. After left to stand at ambient temperature, the wells are washed before the division of an enzyme-labeled anti-mouse IgG solution, and then the wells are left to stand at ambient temperature.
(§3) After washing each well again, a solution of a dye which develops color on enzyme reaction is divided into the washed wells for reaction. After the completion of the reaction, the absorbance of each well at 405 nm is measured with an immunoreader. By comparing the results with the values obtained from known amounts of the antigen, glycyrrhetic acid can be assayed.
(§4) The cross reactivity to the following individual compounds was examined according to inhibition ELISA. • (1) 18α H-Olean-11-oxo-12ene-30-oic acid • (2) Olean-12ene-3,11-dioxo-30-oic acid • (3) Olean-12ene-3α-hydroxy-11-oxo-30-oic- acid • (4) Olean-12ene-11-oxo-3β, 30-diol • (5) Cholic acid • (6) Deoxy cholic acid • (7) Glycyrrhetlc acid (GA) • (8) Glycyrrhizin (GL) These are illustrated as compounds (1), (2), (3), (4), (5), (6), (GA) and (GL).
(§5) One hundred µℓ each of the GA-BSA solution (10 µg/mℓ) was divided in the wells of a 96-well microtiter plate and left to stand overnight at 4° C. After removing the antigen solution, 100 µℓ each of the BSA-PBS was divided and left to stand at 37° C for one hour.
(§6) The 50-fold diluted antibody and each of the compounds were individually adjusted to 10 ng/mℓ, 100 ng/mℓ and 1000 ng/mℓ. Fifty µℓ each of the adjusted solution was divided in each well. After left to stand at ambient temperature for 30 minutes, the wells were washed three times with the PBS containing 0.05 % Tween 20, and washed twice with PBS, followed by the division of the 5000-fold dilution of goat anti-mouse IgG labeled with alkaline phosphatase, and left to stand at room temperature for 30 minutes.
(§7) After each well was washed following the same procedure described above, 100 µℓ each of 1M diethanolamine buffer (pH 9.8) containing p-nitrophenyl phosphate at a concentration of 1 mg/mℓ was divided and reacted at 37° C for 30 minutes. After the completion of the reaction, 2M sodium hydroxide was added. Then, the absorbance at 405 nm of each well was measured with an immunoreader.
(§8) From the inhibition curves obtained, 50 % inhibition concentration (IC 50) of each compound was determined. The antibody generated by the strain GA2-20-1, among the three strains, had the highest specificity.

[2] = test system: monoclonal antibody produced by a strain GA2-20-3; conditions: for 50 % inhibition concentration (IC 50): monoclonal antibody 2-20-3, 50-fold diluted, from inhibition curves; for cross reactivity: monoclonal antibody 2-20-3, values in parenthesis, relative to (GA)
Method: as §1, §2, §3, §4, §5, §6, §7, §8

[3] = test system: monoclonal antibody produced by a strain GA2-20-6; conditions: for 50 % inhibition concentration (IC 50): monoclonal antibody 2-20-6, 50-fold diluted, from inhibition curves; for cross reactivity: monoclonal antibody 2-20-6, values in parenthesis, relative to (GA)
Method: as §1, §2, §3, §4, §5, §6, §7, §8

| Compound | 50 % inhibition concentration (IC 50) [1] [µg/mL] | cross reactivity [1] | 50 % inhibition concentration (IC 50) [2] [µg/mL] | cross reactivity [2] | 50 % inhibition concentration (IC 50) [3] [µg/mL] | cross reactivity [3] |
| --- | --- | --- | --- | --- | --- | --- |
| CC1(C)C(=O)CC[C@]2(C)[C@H]3C(=O)C=C4[C@@H]5C[C@@](C)(C(=O)O)CC[C@]5(C)CC[C@@]4(C)[C@]3(C)CC[C@@H]12 [(2), Olean-12ene-3,11-dioxo-30-oic acid] | 0.8317 | ( 1.9) % | 0.9571 | ( 3.4) % | >1 | (<1.6) % |
| CC1(C)[C@H](O)CC[C@]2(C)[C@H]3C(=O)C=C4[C@@H]5C[C@@](C)(C(=O)O)CC[C@]5(C)CC[C@@]4(C)[C@]3(C)CC[C@@H]12 [(3), Olean-12ene-3α-hydroxy-11-oxo-30-oic-acid] | 0.6954 | ( 2.3) % | 0.6765 | ( 4.9) % | 0.7933 | ( 5.6) % |
| 18α H-Olean-11-oxo-12ene-30-oic acid [compound (1)] | 0.0876 | (18.2) % | 0.0878 | (37.5) % | 0.0975 | (45.5) % |
| C[C@H](CCC(=O)O)[C@H]1CC[C@H]2[C@@H]3[C@H](O)C[C@@H]4C[C@H](O)CC[C@]4(C)[C@H]3C[C@H](O)[C@]12C [compound (5), Cholic acid] | >1 | (<1.6) % | >1 | (<1.6) % | >1 | (<1.6) % |
| Glycyrrhetlc acid [(GA)] | 0.0159 |  | 0.0329 |  | 0.0444 |  |
| CC1(C)[C@@H](O)CC[C@]2(C)[C@H]3C(=O)C=C4[C@@H]5C[C@@](C)(CO)CC[C@]5(C)CC[C@@]4(C)[C@]3(C)CC[C@@H]12 [(4), Olean-12ene-11-oxo-3β, 30-diol] | 0.4372 | ( 3.6) % | 0.4767 | ( 6.9) % | 0.4254 | (10.4) % |
| CC1(C)[C@@H](O[C@H]2O[C@H](C(=O)O)[C@@H](O)[C@H](O)[C@H]2O[C@@H]2O[C@H](C(=O)O)[C@@H](O)[C@H](O)[C@H]2O)CC[C@]2(C)[C@H]3C(=O)C=C4[C@@H]5C[C@@](C)(C(=O)O)CC[C@]5(C)CC[C@@]4(C)[C@]3(C)CC[C@@H]12 [(GL), Glycyrrhizin] | >1 | (<1.6) % | >1 | (<1.6) % | >1 | (<1.6) % |
